assay: RP, Hichrom Alltima HP C18, 150 × 2.1 mm, 3 µm, 0.2 mL/min, estimated dead time 1.7 min; A: 90% water + 5% acetonitrile + 5% formic acid; B: acetonitrile; gradient (min/%B) 0/0 5/10 25/20 30/25 45/70 65/0; conditions: stereoisomer not certain

Point of comparison: `OCC1OC(OC2(CO)OC(CO)C(O)C2O)C(O)C(O)C1O` (configuration not stated) [di-hexose (sucrose)], LC retention time 2.52 min. Against it:
- O=C(O)CC(O)(CC(=O)O)C(=O)O [citric acid] — within 1.5-fold, 3.04 min
- OCC1OC(Oc2cc3c(O)cc(O)cc3[o+]c2-c2ccc(O)c(O)c2)C(O)C(O)C1O (configuration not stated) [cyanidin-3-O-glucoside] — 5.7-fold higher, 14.4 min
- O=C(C=Cc1ccc(O)cc1)OCC1OC(Oc2cc3c(O)cc(=O)cc-3oc2-c2ccc(O)c(O)c2)C(O)C(O)C1O (stereo not drawn) [cyanidin-(coumaroyl)-3-O glucoside, trans isomer] — 11-fold higher, 27.6 min
- OCC1OC(Oc2cc3c(O)cc(O)cc3[o+]c2-c2cc(O)c(O)c(O)c2)C(O)C(O)C1O (configuration not stated) [delfinidin-3-O-glucoside] — 5-fold higher, 12.5 min
- CC1OC(OC2C(=O)c3c(O)cc(O)cc3OC2c2ccc(O)c(O)c2)C(O)C(O)C1O (configuration not stated) [dihydroquercetin-O-deoxyhexoside (astilbin)] — 7.9-fold higher, 19.8 min
- O=C(O)C(O)C(O)C(O)C(O)CO (configuration not stated) [gluconic acid] — within 1.5-fold, 2.37 min
- NC(CCC(=O)NC(CS)C(=O)NCC(=O)O)C(=O)O (configuration not stated) [glutathione] — within 1.5-fold, 3.04 min
- OCC1OC(O)C(O)C(O)C1O (configuration not stated) [hexose] — within 1.5-fold, 2.4 min
- O=C(O)CC(O)C(=O)O (configuration not stated) [malic acid] — within 1.5-fold, 2.72 min
- COc1cc(-c2oc3cc(=O)cc(O)c-3cc2OC2OC(CO)C(O)C(O)C2O)cc(OC)c1O (configuration not stated) [malvidin-3-O-glucoside] — 7.1-fold higher, 18 min
- O=C(OC1OC(CO)C(O)C(O)C1O)c1cc(O)c(O)c(O)c1 (configuration not stated) [monogalloyl glucose] — within 1.5-fold, 3.53 min
- COc1cc(-c2[o+]c3cc(O)cc(O)c3cc2OC2OC(CO)C(O)C(O)C2O)ccc1O (configuration not stated) [peonidin-3-O-glucoside] — 6.8-fold higher, 17.2 min
- COc1cc(-c2[o+]c3cc(O)cc(O)c3cc2OC2OC(CO)C(O)C(O)C2O)cc(O)c1O (configuration not stated) [petunidin-3-O-glucoside] — 6.2-fold higher, 15.6 min
- O=C(O)C1OC(Oc2c(-c3ccc(O)c(O)c3)oc3cc(O)cc(O)c3c2=O)C(O)C(O)C1O (configuration not stated) [quercetin glucuronide] — 7.9-fold higher, 20 min
- O=C(O)C(O)C(O)C(=O)O (configuration not stated) [tartaric acid] — the same, 2.52 min
- NC(Cc1cn(C2OC(CO)C(O)C(O)C2O)c2ccccc12)C(=O)O (configuration not stated) [tryptophan-N-glucoside] — 6.3-fold higher, 15.8 min

Source: the RepoRT retention time repository (doi:10.1186/gb-2013-14-6-r54)
